Reference: paper doi:10.1101/2022.04.25.489410v1 (biorxiv, 2022)

Tests used:
Assay type in all cases: biochemical, uncultured bacterium
[1] = test system: SN243; assay: fluorescence, initial rates, Michaelis-Menten fit; details: 100 mM Tris pH 8.0, 150 mM NaCl, 25 °C
[2] = test system: SN243; assay: product inhibition of pNP-β-GlcA hydrolysis; details: 10 μM pNP-β-GlcA; 100 mM Tris pH 8.0, 150 mM NaCl, 25 °C
[3] = test system: SN243; assay: absorbance at […] nm, initial rates, Michaelis-Menten fit; details: 100 mM Tris pH 8.0, 150 mM NaCl, 25 °C

| Km [3] | SMILES | other results |
| --- | --- | --- |
|  | O=C1OC2(c3ccc(O[C@@H]4O[C@H](C(=O)O)[C@@H](O)[C@H](O)[C@H]4O)cc3Oc3cc(O[C@@H]4O[C@H](C(=O)O)[C@@H](O)[C@H](O)[C@H]4O)ccc32)c2ccccc21 [FD-β-GlcA] | Km [1]: 0.008 mM |
|  | O=C(O)[C@H]1OC(O)[C@H](O)[C@@H](O)[C@@H]1O (some centres unmarked) [GlcA] | IC50 [2]: 179 µM |
| 56.5 ± 4.1 mM | O=[N+]([O-])c1ccc(O[C@@H]2O[C@H](CO)[C@@H](O)[C@H](O)[C@H]2O)cc1 [pNP-β-Glc] |  |
| 23 ± 0.9 mM | O=[N+]([O-])c1ccc(O[C@@H]2OC[C@@H](O)[C@H](O)[C@H]2O)cc1 [pNP-β-Xyl] |  |

| SMILES | Km [3] | other results |
| --- | --- | --- |
| O=C(O)[C@H]1O[C@@H](Oc2ccc([N+](=O)[O-])cc2)[C@H](O)[C@@H](O)[C@@H]1O [pNP-β-GlcA] | 0.0137 mM |  |
